Measured values reported in PMC13080969 (Journal of Chemical Information and Modeling, 2026).
Where two headings read alike, the source gives them in different places.

Key:
[1] = tested on: L. infantum promastigotes; experiment: Promastigote assay (resazurin viability); format: cell-based, Leishmania infantum; settings: for IC50: Leishmania infantum, 48 h, read-out: L. infantum IC50 Promastigotes; for Selectivity index Promastigotes: SI = CC50/IC50
Method: (§1) L. infantum promastigotes were grown at 26 °C in Schneider medium (Sigma), supplemented with 20% heat-inactivated fetal bovine serum (Sigma) and 1% penicillin-streptomycin (Sigma). To ensure maintenance of virulence, the parasites were serially passed through BALB/c mice. THP-1 cells were cultured in RPMI-1640 medium (Sigma-Aldrich), supplemented with 10% heat-inactivated SFB (Sigma) and 1% penicillin-streptomycin (Life Technologies), maintained at a density of 10^6 cells/mL, and incubated at 37 °C in a 5% CO2 atmosphere. For differentiation, THP-1 cells were seeded in 96-well culture plates at a concentration of 1 × 10^4 cells/well and treated with 100 ng/mL of […] (PMA, Sigma-Aldrich) and incubated for 48 h at 37 °C and 5% CO2. Cell viability was previously assessed using the Trypan Blue exclusion method. […] Differentiated THP-1 cells were washed with nonsupplemented RPMI-1640 and given fresh medium without PMA. The cells were rested for 24 h before further treatment.
To evaluate the effect of prioritized compounds on parasite viability, 4 × 10^6 promastigotes/mL were incubated in the presence of a series of 11 points (0.1% DMSO) for 48 h at 28 °C to a final volume of 200 μL in a 96-well microplate, with each condition tested in technical replicates (≥2 wells per condition). Next, 20 μL of resazurin solution (0.39 mM) was added to each well and incubated for 4 h, and then fluorescence was recorded (570 nmex/595 nmem) on a microplate reader SpectraMax M5 (Molecular Devices, Sunnyvale, CA). The IC50 values were determined in three independent experiments by fitting concentration–response curves using nonlinear regression with a four-parameter logistic (4PL) model in GraphPad Prism v10.

[2] = tested on: intracellular L. infantum amastigotes; experiment: Intracellular assay in infected THP-1-derived macrophages; format: cell-based, Leishmania infantum; settings: for IC50: 48 h; for Selectivity index Intracellular: SI = CC50/IC50
Method: as §1
THP-1 cells differentiated in 96-well culture plates were infected with promastigotes in the stationary phase at a ratio of 30 parasites: 1 cell for 4 h at 37 °C in a final volume of 100 μL. The noninternalized parasites were then removed by washing with RPMI-1640 medium. The compounds were diluted at concentrations of 200–0.7 μM in 100 μL of culture medium per well for serial dilution. Subsequently, 100 μL of the diluted compounds was added to the infected THP-1 cells and incubated for 48 h, with each condition tested in technical replicates (≥2 wells per condition). The number of intracellular parasites per 100 macrophages was counted using light microscopy. The infection rate was determined in relation to the mean of the control wells. The IC50 values were determined independently in three separate experiments by fitting concentration–response curves to a 4PL model in GraphPad Prism v10.

[3] = Cytotoxicity assay (resazurin); format: cell-based; settings: human, THP-1 cells, pH 7.4
Method: as §1
THP-1 cells were cultured in 96-well plates at a density of 1 × 10^4 cells per well in 100 μL of RPMI 1640 medium supplemented with 10% heat-inactivated fetal bovine serum (FBS) and 25 mM HEPES (pH 7.4). Cultures were maintained at 37 °C in a humidified atmosphere containing 5% CO2. After 24 h of incubation, the test compounds were prepared in serial dilutions in complete medium, starting at a concentration of 200 μM. Subsequently, 100 μL of each diluted compound solution was added to the corresponding wells containing the cells, with each concentration tested in duplicate wells. Following a 72 h incubation period, resazurin solution (Sigma) was added to each well at a final concentration of 20 μM, and plates were incubated for an additional 4 h under the same conditions. Fluorescence was measured using a SpectraMax M5 microplate reader (Molecular Devices, Sunnyvale, CA, USA) with an excitation wavelength of 570 nm and an emission wavelength of 595 nm.

[4] = Experimental determination of distribution coefficient (eLogD), chromatographic; format: physicochemical; settings: Supelco Ascentis Express RP Amide HPLC column; pH 7.4, chromatographic retention method
Method: (§2) ADME profiling was conducted using liquid chromatography coupled with tandem mass spectrometry (LC–MS/MS).
The eLogD was carried out using a chromatographic method based on the analyte retention times within a stationary phase. Separation was performed on a Supelco Ascentis Express RP Amide high-performance liquid chromatography (HPLC) column (5 cm × 2.1 mm, 2.7 μm particle size), utilizing a binary mobile phase system composed of 5% methanol in 10 mM ammonium acetate buffer at pH 7.4 (designated as solvent A), and pure methanol (solvent B). […] The injection volume for each sample was 5 μL. Test compounds were diluted to a concentration of 1.0 mg/mL in a 1:1 mixture of mobile phases A and B, containing an internal standard at 200 nM. Final DMSO concentration was kept below 2%. […] A calibration curve was generated by plotting the retention times of these standards against their corresponding eLogD values. The linear regression equation (y = mx + b) obtained from this curve was then used to calculate the eLogD of each test compound.

[5] = Parallel artificial membrane permeability assay (PAMPA); format: in vitro ADME; settings: donor pH 6.5, acceptor pH 7.4, 5 h, 37 °C; for Papp at 5 h, 10 μM: PAMPA, read-out: PAMPA Pe
Method: as §2
Each well is divided into two chambers, donor and acceptor, separated by a triple-layer phospholipid membrane constructed on a porous filter. Solutions of the compounds are prepared by diluting their respective stock solutions (10 mM in DMSO) in phosphate-buffered saline (PBS) at pH 6.5, yielding a final concentration of 10 μM (<1% DMSO, v/v). The solutions are then added to the donor portion of the plate (300 μL/well) in triplicate, while the acceptor portion received only PBS pH 7.4 (200 μL/well). The donor and acceptor portions are subsequently assembled, and the system is incubated for 5 h at 37 °C and 100 rpm. […] After the incubation period, samples are collected from the donor (10 μL) and acceptor (80 μL) wells and added to the analysis plate containing stop solution (300 μL) and PBS buffer pH 6.5 (60 μL). Final compound concentrations in the donor, acceptor, and Tzero wells are quantified by LC-MS/MS. The chromatogram for analysis was achieved on Supelco Ascentis express C18 column (3 cm × 2.1 mm, 5 μM). The mobile phases consisted of water +0.1% formic acid (A) and acetonitrile +0.1% formic acid (B). […] The results were used to calculate an effective permeability (Pe) value. All PAMPA assay was performed in triplicates.

[6] = tested on: intracellular L. infantum amastigotes; set-up: method as in PMID 39334981; settings: clinical comparators, cited from earlier work
[7] = set-up: method as in PMID 39334981; settings: clinical comparators; read-out: CC50 (cytotoxicity); cited from earlier work
[8] = Mouse liver microsomal stability assay; format: in vitro ADME; settings: CD1, mouse, mouse liver microsomes, pH 7.4, 0.25 mg/mL protein; for microsomal CLint at 0.5 μM: read-out: MLM CLint; for half-life at 0.5 μM: read-out: MLM T 1/2
Method: as §2
Compounds were diluted to a final concentration of 0.5 μM and incubated with microsomal protein at 0.25 mg/mL in phosphate-buffered saline (PBS) at pH 7.4. The DMSO content in the incubation mixture was maintained below 1%. The metabolic reaction was initiated by introducing NADPH as a cofactor at a concentration of […]. Aliquots were taken at defined time intervals: 0 (immediately after NADPH addition), 5, 10, 20, 30, and 60 min. Reactions were halted by the addition of a quenching solvent consisting of a 1:1 mixture of acetonitrile and methanol containing an internal standard at 50 nM. Following quenching, samples were centrifuged at 3500 rpm for 30 min to pellet the precipitated microsomal proteins. The resulting supernatants were analyzed via LC–MS/MS. Quantification was performed based on the peak area ratio (PAR) of the analyte to internal standard, with the signal at time zero defined as 100%. The percentage of parent compound remaining at each time point was calculated accordingly. Using the plot of % remaining versus incubation time, the degradation rate constant (k) was determined via nonlinear regression. […] Chromatographic analysis was carried out using a Supelco Ascentis Express C18 column (3 cm × 2.1 mm, 5 μm particle size). The mobile phases were composed of water with 0.1% formic acid (A) and acetonitrile with 0.1% formic acid (B). […] All metabolic stability assays were conducted in triplicate.

[9] = Leishmania infantum, Macrophage, THP-1-derived macrophages infected with L. infantum, read-out: L. infantum IC50 Intracellular
[10] = Leishmania infantum, Macrophage, read-out: L. infantum IC50 Intracellular, THP-1-derived macrophages infected with L. infantum, 48 h
[11] = THP-1-derived macrophages infected with L. infantum, read-out: L. infantum IC50 Intracellular

## O=C(NCCc1cnc[nH]1)c1cc(-c2ccccc2)nc2ccccc12 [LC-67]
[1]; resazurin
  IC50: > 20 µM

## CCc1nc(C)c(C(=O)NCC(c2cccnc2)N2CCCCC2)s1 (centres unmarked) [LC-59]
[1]; resazurin
  IC50: > 20 µM

## Cc1ccccc1CN1CCC(CN(Cc2cccnc2)Cc2nc(C(C)C)cs2)CC1 [LC-64]
[1]; resazurin
  IC50: 3.95 ± 0.42 µM
[1]
  Selectivity index Promastigotes: 7.03
[2]; [9]
  IC50: 6.72 ± 5.79 µM
[2]
  Selectivity index Intracellular: 4.13
[3]
  CC50 at 72 h: 27.8 ± 3.59 µM

## Cc1ccc(C)c(-c2nc(NC(=O)C3CC3)sc2C)c1 [LC-69]
[1]; resazurin
  IC50: > 20 µM

## CCCCC(NC1CCN(c2ccccc2F)CC1)c1cccnc1 (centres unmarked) [LC-61]
[1]; resazurin
  IC50: 0.037 ± 0.002 µM
[3]
  CC50 at 72 h: 157 ± 20.7 µM
[4]
  chromatographic logD: 4.07
[5]
  Papp at 5 h, 10 μM: 4.86 ×10⁻⁶ cm/s
  PAMPA Pe: 4.86 10^–6 cm/s

## CCCCCCCCCCCCCCCCOP(=O)([O-])OCC[N+](C)(C)C [miltefosine]
[6]
  SI: 138
[6]; read-out: IC50 against intracellular L. infantum amastigotes
  IC50: 0.37 µM
[7]
  CC50: 51.1 µM

## O=C(Nc1ccc(Cl)cn1)N1CCCCC1c1cccnc1 (centres unmarked) [LC-74]
[1]; resazurin
  IC50: 0.49 ± 0.07 µM
[3]
  CC50 at 72 h: > 200 µM
[4]
  chromatographic logD: 2.39
[5]
  Papp at 5 h, 10 μM: 10.8 ×10⁻⁶ cm/s
[8]
  microsomal CLint at 0.5 μM: 27.2 µL/min/mg
  half-life at 0.5 μM: 1.7 h

## Fc1ccc(N2CCC(NCC(c3cccnc3)N3CCCCC3)CC2)cc1F (centres unmarked) [LC-62]
[1]; resazurin
  IC50: 9.62 ± 0.98 µM
[1]
  Selectivity index Promastigotes: >10.4
[2]
  Selectivity index Intracellular: >24.7
[3]
  CC50 at 72 h: > 100 µM

## CC(C)n1cc(C(=O)NC(c2ccc(Cl)cc2)c2cccnc2)cn1 (centres unmarked) [LC-73]
[1]; resazurin
  IC50: > 20 µM

## CC(C)N1CCC(C(=O)NC(c2ccc(Cl)cc2)c2cccnc2)CC1 (centres unmarked) [LC-70]
[1]; resazurin
  IC50: > 20 µM

## Fc1cccc(CN(Cc2cccnc2)CC2CCCN(C3CCCCC3)C2)c1 (centres unmarked) [LC-63]
[1]
  IC50: 4.53 ± 0.8 µM
  Selectivity index Promastigotes: 7.26
[2]; [10]
  IC50: 11.5 ± 24 µM
[3]
  CC50 at 72 h: 32.9 ± 5.22 µM

## OC(COc1ccc(Br)cc1)Cn1ccnc1 (centres unmarked) [LC-75]
[1]; resazurin
  IC50: 10.5 ± 1.26 µM
[1]
  Selectivity index Promastigotes: >9.52
[2]; [10]
  IC50: < 10 µM
[2]
  Selectivity index Intracellular: >14.8
[2]; [11]
  IC50: 6.73 ± 3.27 µM
[3]
  CC50 at 72 h: > 100 µM

## Cc1ccc(C)c(-c2nc(NC(=O)c3ccncc3)sc2C)c1 [LC-68]
[1]; resazurin
  IC50: > 20 µM

## Cn1nnc2cc(NC(=O)N3CCCCC3c3cccnc3)ccc21 (centres unmarked) [LC-72]
[1]; resazurin
  IC50: > 20 µM

## Cc1ccccc1CN1CCC(CN(Cc2cccnc2)Cc2cc(CC(C)C)[nH]n2)CC1 [LC-58]
[1]; resazurin
  IC50: 7.85 ± 0.64 µM
[1]
  Selectivity index Promastigotes: 4.45
[2]; [9]
  IC50: 7.81 ± 4.13 µM
[2]
  Selectivity index Intracellular: 4.48
[3]
  CC50 at 72 h: 35 ± 5.2 µM

## O=C(Cc1ccccc1)NC(c1ccc(Cl)cc1)c1cccnc1 (centres unmarked) [LC-66]
[1]; resazurin
  IC50: 3.18 ± 0.72 µM
[1]
  Selectivity index Promastigotes: >31.4
[2]; [9]
  IC50: 40.5 ± 58.7 µM
[2]
  Selectivity index Intracellular: >2.46
[3]
  CC50 at 72 h: > 100 µM

## O=C(C(c1cccnc1)N1CCOCC1)N1CCCN(Cc2ccc(F)cc2)CC1 (centres unmarked) [LC-65]
[1]
  IC50: 3.59 ± 0.53 µM
[2]; [10]
  IC50: > 55.5 µM
[3]
  CC50 at 72 h: > 245 µM

## O=C1OCc2ccc(NC(=O)N3CCCCC3c3cccnc3)cc21 (centres unmarked) [LC-71]
[1]; resazurin
  IC50: 11.7 ± 2.86 µM
[1]
  Selectivity index Promastigotes: >17.1
[2]; [10]
  IC50: < 10 µM
[2]
  Selectivity index Intracellular: >20.5
[2]; [11]
  IC50: 9.76 ± 10.2 µM
[3]
  CC50 at 72 h: > 200 µM

## Cc1cc(F)ccc1N1CCC(NC(Cn2ccnc2)c2ccccc2)CC1 (centres unmarked) [LC-60]
[1]; resazurin
  IC50: 0.43 ± 0.05 µM
[3]
  CC50 at 72 h: 40.8 ± 28.2 µM
[4]
  chromatographic logD: 4.45
[5]
  Papp at 5 h, 10 μM: 6.36 ×10⁻⁶ cm/s
[8]
  microsomal CLint at 0.5 μM: 120 µL/min/mg
  half-life at 0.5 μM: 0.386 h
